Data on 19 molecules can be found in patent US12162893B2 (Erasca, Inc., priority 2020, dated 2024).

The target in this assay is T1, mutant G12C K-RAS (Homo sapiens, UniProt P01116, G12C).
T1 construct: made in house; host or cells: E. coli BL21
In words: covalent adduct formation (CAF) with mutant G12C K-RAS. Type of assay: binding. The conditions noted are these: for % CAF @ 10 μM,1 h: Table 6. The method, then: Embodiments disclosed herein are further illustrated by the following examples in Tables 1-4 and the Examples hereinbelow. The Tables indicate the compound number, structure, the observed mass spectral molecular weight peak, and covalent adduct formation (CAF) with a mutant G12C K-RAS after 60 minutes at a concentration of 10 micromolar.

Turning to `C=C(F)C(=O)N1CCN(c2nc(=O)n3c4c(c(-c5c(O)cccc5F)c(Cl)cc24)OCC3)C[C@@H]1CC#N` (atropisomer, axis not shown) [Example 10, 2-((2S)-4-(9-chloro-10-(2-fluoro-6-hydroxyphenyl)-5-oxo-3,5-dihydro-2H-[1,4]oxazino[2,3,4-ij]quinazolin-7-yl)-1-(2-fluoroacryloyl)piperazin-2-yl)acetonitrile], the “% CAF (60 min)” value (Table 1, Pyrimidone Core-Morpholine Unsubstituted, after 60 minutes at 10 micromolar) was determined as 8.5%.
For the molecule `C=CC(=O)N1C[C@H](C)N(c2nc(=O)n3c4c(c(-c5c(O)cccc5F)c(Cl)cc24)OC[C@@H]3CN2CCOCC2)C[C@H]1C` (atropisomer, axis not shown) [Example 208, (3R,10R)-7-((2S,5R)-4-acryloyl-2,5-dimethylpiperazin-1-yl)-9-chloro-10-(2-fluoro-6-hydroxyphenyl)-3 - (morpholinomethyl)-2,3-dihydro-5H-[1,4]oxazino[2,3,4-ij]quinazolin-5-one], the “% CAF @ 10 μM,1 h” value is listed as 0%.
Same read-out and setting: the same measure for `C=CC(=O)N1C[C@H](C)N(c2nc(=O)n3c4c(c(-c5c(O)cccc5F)c(Cl)cc24)OC[C@H]3CN2CCOCC2)C[C@H]1C` (atropisomer, axis not shown) [Example 209, (3R,10S)-7-((2S,5R)-4-acryloyl-2,5-dimethylpiperazin-1-yl)-9-chloro-10-(2-fluoro-6-hydroxyphenyl)-3-(morpholinomethyl)-2,3-dihydro-5H-[1,4]oxazino[2,3,4-ij]quinazolin-5-one]: 85%; for `C=CC(=O)N1C[C@H](C)N(c2nc(=O)n3c4c(c(-c5c(O)cccc5F)c(Cl)cc24)OC[C@H]3CN2CCOCC2)C[C@H]1C` (atropisomer, axis not shown) [Example 210, (3R,10R)-7-((2S,5R)-4-acryloyl-2,5-dimethylpiperazin-1-yl)-9-chloro-10-(2-fluoro-6-hydroxyphenyl)-3-(morpholinomethyl)-2,3-dihydro-5H-[1,4]oxazino[2,3,4-ij]quinazolin-5-one]: 0%; for `C=CC(=O)N1C[C@H](C)N(c2nc(=O)n3c4c(c(-c5c(O)cccc5F)c(Cl)cc24)OC[C@H]3CN2CCC(F)(F)C2)C[C@H]1C` (atropisomer, axis not shown) [Example 222, (3R,10S)-7-((2S,5R)-4-acryloyl-2,5-dimethylpiperazin-1-yl)-9-chloro-3-((3,3-difluoropyrrolidin-1-yl)methyl)-10-(2-fluoro-6-hydroxyphenyl)-2,3-dihydro-5H-[1,4]oxazino[2,3,4-ij]quinazolin-5-one]: 1.4%.
As to `C=CC(=O)N1C[C@H](C)N(c2nc(=O)n3c4c(c(-c5c(O)cccc5F)c(Cl)cc24)OC[C@@H]3CCCN2CCOCC2)C[C@H]1C` (atropisomer, axis not shown) [Example 225, (3S,10R)-7-((2S,5R)-4-acryloyl-2,5-dimethylpiperazin-1-yl)-9-chloro-10-(2-fluoro-6-hydroxyphenyl)-3-(3-morpholinopropyl)-2,3-dihydro-5H-[1,4]oxazino[2,3,4-ij]quinazolin-5-one], the “% CAF @ 10 μM,1 h” value stood at 4.4%.
On the same count and under the same terms, the same measure for `C=CC(=O)N1C[C@H](C)N(c2nc(=O)n3c4c(c(-c5c(O)cccc5F)c(Cl)cc24)OC[C@@H]3CCCN2CCOCC2)C[C@H]1C` (atropisomer, axis not shown) [Example 226, (3S,10S)-7-((2S,5R)-4-acryloyl-2,5-dimethylpiperazin-1-yl)-9-chloro-10-(2-fluoro-6-hydroxyphenyl)-3-(3-morpholinopropyl)-2,3-dihydro-5H-[1,4]oxazino[2,3,4-ij]quinazolin-5-one]: 97.8%; for `C=CC(=O)N1CCN(c2nc(=O)n3c4c(c(-c5c(O)cccc5F)c(Cl)cc24)OC[C@H]3CN2CCC(F)(F)C2)[C@@H](C)C1` (atropisomer, axis not shown) [Example 227, (3R,10R)-7-((S)-4-acryloyl-2-methylpiperazin-1-yl)-9-chloro-3-((3,3-difluoropyrrolidin-1-yl)methyl)-10-(2-fluoro-6-hydroxyphenyl)-2,3-dihydro-5H-[1,4]oxazino[2,3,4-ij]quinazolin-5-one]: 0%.
In the case of `C=CC(=O)N1CCN(c2nc(=O)n3c4c(c(-c5c(O)cccc5F)c(Cl)cc24)OC[C@@H]3CN2CCC(F)(F)C2)[C@@H](C)C1` (atropisomer, axis not shown) [Example 228, (3S,10S)-7-((S)-4-acryloyl-2-methylpiperazin-1-yl)-9-chloro-3-((3,3-difluoropyrrolidin-1-yl)methyl)-10-(2-fluoro-6-hydroxyphenyl)-2,3-dihydro-5H-[1,4]oxazino[2,3,4-ij]quinazolin-5-one], the “% CAF @ 10 μM,1 h” value amounted to 98%.
For the molecule `C=CC(=O)N1CCN(c2nc(=O)n3c4c(c(-c5c(O)cccc5F)c(Cl)cc24)OC[C@@H]3CN2CCC(F)(F)C2)[C@@H](C)C1` (atropisomer, axis not shown) [Example 229, (3S,10R)-7-((S)-4-acryloyl-2-methylpiperazin-1-yl)-9-chloro-3-((3,3-difluoropyrrolidin-1-yl)methyl)-10-(2-fluoro-6-hydroxyphenyl)-2,3-dihydro-5H-[1,4]oxazino[2,3,4-ij]quinazolin-5-one], the “% CAF @ 10 μM,1 h” value turned out to be 1.6%.
Consider `C=CC(=O)N1CCN(c2nc(=O)n3c4c(c(-c5c(O)cccc5F)c(Cl)cc24)OC[C@H]3CN2CCC(F)(F)C2)[C@@H](C)C1` (atropisomer, axis not shown) [Example 230, (3R,10S)-7-((S)-4-acryloyl-2-methylpiperazin-1-yl)-9-chloro-3-((3,3-difluoropyrrolidin-1-yl)methyl)-10-(2-fluoro-6-hydroxyphenyl)-2,3-dihydro-5H-[1,4]oxazino[2,3,4-ij]quinazolin-5-one], for which the “% CAF @ 10 μM,1 h” value is on record as 75.9%.
In the case of `C=CC(=O)N1C[C@H](C)N(c2nc(=O)n3c4c(c(-c5c(O)cccc5F)c(Cl)cc24)OC[C@@H]3CN(C)CC(F)(F)F)C[C@H]1C` (atropisomer, axis not shown) [Example 239, (3S,10R)-7-((2S,5R)-4-acryloyl-2,5-dimethylpiperazin-1-yl)-9-chloro-10-(2-fluoro-6-hydroxyphenyl)-3-((methyl(2,2,2-trifluoroethyl)amino)methyl)-2H-[1,4]oxazino[2,3,4-ij]quinazolin-5(3H)-one], the “% CAF @ 10 μM,1 h” value is recorded as 3%.
Take `C=CC(=O)N1C[C@H](C)N(c2nc(=O)n3c4c(c(-c5c(O)cccc5F)c(Cl)cc24)OC[C@@H]3CN(C)CC(F)(F)F)C[C@H]1C` (atropisomer, axis not shown) [Example 240, (3S,10S)-7-((2S,5R)-4-acryloyl-2,5-dimethylpiperazin-1-yl)-9-chloro-10-(2-fluoro-6-hydroxyphenyl)-3-((methyl(2,2,2-trifluoroethyl)amino)methyl)-2H-[1,4]oxazino[2,3,4-ij]quinazolin-5(3H)-one]: the “% CAF @ 10 μM,1 h” value is reported as 82.1%.
On the same count and under the same terms, for `C=CC(=O)N1C[C@H](C)N(c2nc(=O)n3c4c(c(-c5c(O)cccc5F)c(Cl)cc24)OC[C@H]3CN(C)CC(F)(F)F)C[C@H]1C` (atropisomer, axis not shown) [Example 241, (3R,10R)-7-((2S,5R)-4-acryloyl-2,5-dimethylpiperazin-1-yl)-9-chloro-10-(2-fluoro-6-hydroxyphenyl)-3-((methyl(2,2,2-trifluoroethyl)amino)methyl)-2H-[1,4]oxazino[2,3,4-ij]quinazolin-5(3H)-one] the value was 0%.
Turning to `C=CC(=O)N1C[C@H](C)N(c2nc(=O)n3c4c(c(-c5c(O)cccc5F)c(Cl)cc24)OC[C@H]3CN(C)CC(F)(F)F)C[C@H]1C` (atropisomer, axis not shown) [Example 242, (3R,10S)-7-((2S,5R)-4-acryloyl-2,5-dimethylpiperazin-1-yl)-9-chloro-10-(2-fluoro-6-hydroxyphenyl)-3-((methyl(2,2,2-trifluoroethyl)amino)methyl)-2H-[1,4]oxazino[2,3,4-ij]quinazolin-5(3H)-one], the “% CAF @ 10 μM,1 h” value is 63.1%.
The same measure, in the same setting: the same measure for `C=CC(=O)N1C[C@H](C)N(c2nc(=O)n3c4c(c(-c5c(O)cccc5F)c(Cl)cc24)OC[C@@H]3Cn2cccn2)C[C@H]1C` (atropisomer, axis not shown) [Example 243, (3S,10S)-3-((1H-pyrazol-1-yl)methyl)-7-((2S,5R)-4-acryloyl-2,5-dimethylpiperazin-1-yl)-9-chloro-10-(2-fluoro-6-hydroxyphenyl)-2H-[1,4]oxazino[2,3,4-ij]quinazolin-5(3H)-one]: 80.6%.
In the case of `C=CC(=O)N1C[C@H](C)N(c2nc(=O)n3c4c(c(-c5c(O)cccc5F)c(Cl)cc24)OC[C@@H]3Cn2cccn2)C[C@H]1C` (atropisomer, axis not shown) [Example 244, (3S,10R)-3-((1H-pyrazol-1-yl)methyl)-7-((2S,5R)-4-acryloyl-2,5-dimethylpiperazin-1-yl)-9-chloro-10-(2-fluoro-6-hydroxyphenyl)-2H-[1,4]oxazino[2,3,4-ij]quinazolin-5(3H)-one], the “% CAF @ 10 μM,1 h” value worked out at 4.4%.
Take `C=CC(=O)N1C[C@H](C)N(c2nc(=O)n3c4c(c(-c5c(O)cccc5F)c(Cl)cc24)OC[C@H]3Cn2cccn2)C[C@H]1C` (atropisomer, axis not shown) [Example 245, (3R,10R)-3-((1H-pyrazol-1-yl)methyl)-7-((2S,5R)-4-acryloyl-2,5-dimethylpiperazin-1-yl)-9-chloro-10-(2-fluoro-6-hydroxyphenyl)-2H-[1,4]oxazino[2,3,4-ij]quinazolin-5(3H)-one]: the “% CAF @ 10 μM,1 h” value was found to be 0%.
Take `C=CC(=O)N1C[C@H](C)N(c2nc(=O)n3c4c(c(-c5c(O)cccc5F)c(Cl)cc24)OC[C@H]3Cn2cccn2)C[C@H]1C` (atropisomer, axis not shown) [Example 246, (3R,10S)-3-((1H-pyrazol-1-yl)methyl)-7-((2S,5R)-4-acryloyl-2,5-dimethylpiperazin-1-yl)-9-chloro-10-(2-fluoro-6-hydroxyphenyl)-2H-[1,4]oxazino[2,3,4-ij]quinazolin-5(3H)-one]: the “% CAF @ 10 μM,1 h” value was 97.4%.
